Ki, IC50 and solubility data for three compounds are collected here from ChEMBL document CHEMBL5104099, “Recent applications of seven-membered rings in drug design” (Bioorg Med Chem, 2022).

By Ki is commonly meant a dissociation constant, usually derived from enzyme kinetics or from competition with a known ligand. In general, IC50 refers to the concentration at which inhibition is half-maximal. The low end stands for inhibition by little substance, the high end for a need for much substance. As a reminder, the solubility is how much of the substance goes into solution per volume.

For data set [1], the target named is Human immunodeficiency virus type 1 protease (Human immunodeficiency virus 1, UniProt Q72874). As to the kind of experiment: Binding affinity to HIV-1 protease assessed as inhibition constant incubated for 60 mins by mass spectrometric analysis.
In data set [2] the target is Tyrosine-protein kinase BTK (Homo sapiens, UniProt Q06187). Description: Inhibition of BTK in human whole blood. In kind it is tissue-based.
Data set [3] in a line: Aqueous solubility of the compound. In kind it is physicochemical.

In brackets after ≈: the same amount, converted by molar mass.

Chain of Tyrosine-protein kinase BTK (Q06187 whole entry): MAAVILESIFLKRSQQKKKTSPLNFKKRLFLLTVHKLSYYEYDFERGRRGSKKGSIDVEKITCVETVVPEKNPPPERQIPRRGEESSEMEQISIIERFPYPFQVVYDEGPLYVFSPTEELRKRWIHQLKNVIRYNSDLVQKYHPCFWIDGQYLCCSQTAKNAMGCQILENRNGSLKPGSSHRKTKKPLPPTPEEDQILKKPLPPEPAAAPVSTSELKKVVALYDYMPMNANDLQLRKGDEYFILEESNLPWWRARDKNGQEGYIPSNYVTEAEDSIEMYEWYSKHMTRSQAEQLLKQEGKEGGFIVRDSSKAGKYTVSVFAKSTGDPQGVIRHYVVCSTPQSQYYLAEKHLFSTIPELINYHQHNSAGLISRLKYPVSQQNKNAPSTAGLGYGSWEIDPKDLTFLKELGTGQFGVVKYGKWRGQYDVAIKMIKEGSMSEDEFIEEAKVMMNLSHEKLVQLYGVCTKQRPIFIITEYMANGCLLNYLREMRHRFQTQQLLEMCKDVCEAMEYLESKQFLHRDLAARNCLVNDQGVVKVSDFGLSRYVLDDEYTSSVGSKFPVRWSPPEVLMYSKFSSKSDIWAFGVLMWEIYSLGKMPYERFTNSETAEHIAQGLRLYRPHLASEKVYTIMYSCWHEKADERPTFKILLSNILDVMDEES

`CC(C)[C@H]1Cc2cc(F)ccc2S(=O)(=O)N(C[C@@H](O)[C@H](Cc2ccccc2)NC(=O)O[C@H]2CCOC2)C1`: the Ki in data set [1] came to 0.36 nM.

For `Cn1cc(-c2cccc(-n3ncc4cc(C(C)(C)C)cc(F)c4c3=O)c2CO)cc(Nc2ccc(C(=O)N3CCOCC3)cn2)c1=O`, half-maximal inhibition in data set [2] (IC50) was put at 1 nM. In other words, the single-digit nanomolar range.

As for `Cn1c2c(cc(Nc3ccc(C(=O)N4CCOCC4)cn3)c1=O)-c1cccc(-n3ncc4cc(C(C)(C)C)cc(F)c4c3=O)c1C[C@H](O)C2`, in data set [3], the concentration in solution (solubility) came to 1 µg/mL (≈ 1.5 µM).
